Columns and labels:
[1] = biological target: T1, human dopamine D3 receptors (Homo sapiens, UniProt P35462); test: Receptor binding study, dopamine D3 receptor ([125I]-iodosulpride displacement); details: membranes of HEK-293 cells, 0.1 nM [125I]-iodosulpride, 25° C., 60 minutes
T1 construct: expressed in transfected cells; host or cells: HEK-293
Method: (§1) The substance to be tested was either dissolved in methanol/Chremophor® (BASF SE) or in dimethyl sulfoxide and then diluted with water to the desired concentration.
(§2) Each assay mixture was run in triplicate. • The incubation buffer contained 50 mM tris, 120 mM NaCl, 5 mM KCl, 2 mM CaCl2, 2 mM MgCl2 and 0.1% bovine serum albumin, 10 μM quinolone and 0.1% ascorbic acid (prepared fresh daily). […] Each assay mixture was run in triplicate. • The incubation buffer contained 50 mM tris, 120 mM NaCl, 5 mM KCl, 2 mM CaCl2, 2 mM MgCl2 and 0.1% bovine serum albumin. The buffer was adjusted to pH 7.4 with HCl. c) Measurement and Analysis: • After having been incubated at 25° C. for 60 minutes, the assay mixtures were filtered through a Whatman GF/B glass fiber filter under vacuum using a cell collecting device. The filters were transferred to scintillation viols using a filter transfer system. After 4 ml of Ultima Gold® (Packard) have been added, the samples were shaken for one hour and the radioactivity was then counted in a Beta-Counter (Packard, Tricarb 2000 or 2200CA).

[2] = biological target: T2, human dopamine D2L receptors (long isoform) (Homo sapiens, UniProt P14416); test: Receptor binding study, dopamine D2L receptor ([125I]iodospiperone displacement), selectivity vs D3; details: selectivity ratio, HEK-293 membranes
T2 construct: expressed in transfected cells; host or cells: HEK-293
Method: as §1, §2

[3] = Determination of the microsomal half-life / microsomal clearance, rat; assay type: in vitro ADME; details: rat liver microsomes, 0.5 μM test substance, 0.25 mg microsomal protein/ml, NADPH, 37° C.
Method: (§3) The metabolic stability of the compounds of the invention was determined in the following assay.
(§4) The test substances were incubated in a concentration of 0.5 μM as follows:
(§5) 0.5 μM test substance are preincubated together with liver microsomes from different species (from rat, human or other species) (0.25 mg of microsomal protein/ml) in 0.05 M potassium phosphate buffer of pH 7.4 in microtiter plates at 37° C. for 5 min. The reaction is started by adding NADPH (1 mg/mL). After 0, 5, 10, 15, 20 and 30 min, 50 μl aliquots are removed, and the reaction is immediately stopped and cooled with the same volume of acetonitrile. The samples are frozen until analyzed. The remaining concentration of undegraded test substance is determined by MSMS. The half-life (T½) is determined from the gradient of the signal of test substance/unit time plot, it being possible to calculate the half-life of the test substance, assuming first order kinetics, from the decrease in the concentration of the compound with time. The microsomal clearance (mCl) is calculated from mCl=ln 2/T½/(content of microsomal protein in mg/ml)×1000 [ml/min/mg] (modified from references: Di, The Society for Biomoleculur Screening, 2003, 453-462; Obach, DMD, 1999 vol 27. N 11, 1350-1359).

[4] = Determination of the microsomal half-life / microsomal clearance, human; assay type: in vitro ADME; details: human liver microsomes, 0.5 μM test substance, 0.25 mg microsomal protein/ml, NADPH, 37° C.
Method: as §3, §4, §5

T2 sequence (P14416 whole entry, canonical isoform): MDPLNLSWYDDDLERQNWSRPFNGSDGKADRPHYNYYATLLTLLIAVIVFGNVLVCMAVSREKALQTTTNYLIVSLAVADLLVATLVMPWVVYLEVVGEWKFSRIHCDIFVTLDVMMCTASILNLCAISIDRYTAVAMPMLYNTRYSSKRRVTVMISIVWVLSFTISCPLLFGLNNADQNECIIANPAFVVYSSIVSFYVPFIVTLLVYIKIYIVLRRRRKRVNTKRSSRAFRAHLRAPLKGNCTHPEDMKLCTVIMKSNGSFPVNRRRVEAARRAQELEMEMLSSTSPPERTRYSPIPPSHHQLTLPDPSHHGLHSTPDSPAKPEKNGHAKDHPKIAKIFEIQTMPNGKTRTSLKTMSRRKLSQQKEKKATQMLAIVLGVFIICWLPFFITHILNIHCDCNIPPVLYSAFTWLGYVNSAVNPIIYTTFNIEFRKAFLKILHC
T1 sequence (P35462 whole entry): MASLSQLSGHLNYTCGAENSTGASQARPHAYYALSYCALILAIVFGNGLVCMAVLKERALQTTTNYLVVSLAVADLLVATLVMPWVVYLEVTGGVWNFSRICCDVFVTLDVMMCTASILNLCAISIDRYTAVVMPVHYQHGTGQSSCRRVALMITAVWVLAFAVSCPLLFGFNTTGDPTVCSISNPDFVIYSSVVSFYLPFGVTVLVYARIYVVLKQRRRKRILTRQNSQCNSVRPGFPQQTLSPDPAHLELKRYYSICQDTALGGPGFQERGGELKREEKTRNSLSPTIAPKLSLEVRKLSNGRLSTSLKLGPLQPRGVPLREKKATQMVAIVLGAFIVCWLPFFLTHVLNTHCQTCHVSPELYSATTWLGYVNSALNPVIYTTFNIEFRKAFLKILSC

Compound | Ki [1] | D2/D3 (Ki (D2L)/Ki (D3)) [2] | Rat mCl [3] | Human mCl [4]
CC(=O)N[C@H]1CC[C@H](CCN2CCN(c3cc(CCOC(F)(F)F)nc(C(C)(C)C)n3)CC2)CC1 [Compound 10b, trans N-[4-(2-{4-[2-tert-Butyl-6-(2-trifluoromethoxy-ethyl)-pyrimidin-4-yl]-piperazin-1-yl}-ethyl)-cyclohexyl]-acetamide] | < 10 nM | + (+>10) | ∘ (∘: >120 μl min^−1 mg^−1) | + (+: 20-120 μl min^−1 mg^−1)
COCCc1cc(N2CCN(CC[C@H]3C[C@H](NC(C)=O)C3)C[C@@H]2C)nc(C(C)(C)C)n1 [Compound 30, trans-N-[3-[2-[(3S)-4-[2-tert-butyl-6-(2-methoxyethyl)pyrimidin-4-yl]-3-methyl-piperazin-1-yl]ethyl]cyclobutyl]acetamide] | < 50 nM | ++ (++>20) | + (+: 20-120 μl min^−1 mg^−1) | + (+: 20-120 μl min^−1 mg^−1)
COCCc1cc(N2CCN(CC[C@@H]3CC[C@@H](NC(C)=O)C3)CC2)nc(C(C)(C)C)n1 [Compound 14, trans-N-[(1R,3S)-3-[2-[4-[2-tert-butyl-6-(2-methoxyethyl)pyrimidin-4-yl]piperazin-1-yl]ethyl]cyclopentyl]acetamide] | < 50 nM | +++ (+++>50) | + (+: 20-120 μl min^−1 mg^−1) | + (+: 20-120 μl min^−1 mg^−1)
trans-N-[4-[2-[4-(2-tert-butyl-6-tetrahydrofuran-3-yl-pyrimidin-4-yl)piperazin-1-yl]ethyl]cyclohexyl]formamide [Compound 27] | < 10 nM | +++ (+++>50) | + (+: 20-120 μl min^−1 mg^−1) | + (+: 20-120 μl min^−1 mg^−1)
COCCc1cc(N2CCN(CC[C@H]3CC[C@H](NC(C)=O)CC3)C[C@@H]2C)nc(C(C)(C)C)n1 [Compound 8, trans-N-[4-(2-{(3S)-4-[2-tert-Butyl-6-(2-methoxy-ethyl)-pyrimidin-4-yl]-3-methyl-piperazin-1-yl}-ethyl)-cyclohexyl]-acetamide] | < 10 nM | +++ (+++>50) | + (+: 20-120 μl min^−1 mg^−1) | + (+: 20-120 μl min^−1 mg^−1)
COCCc1cc(N2CCN(CC[C@H]3C[C@@H](NC(C)=O)C3)C[C@@H]2C)nc(C(C)(C)C)n1 [Compound 31, cis-N-[3-[2-[(3S)-4-[2-tert-butyl-6-(2-methoxyethyl)pyrimidin-4-yl]-3-methyl-piperazin-1-yl]ethyl]cyclobutyl]acetamide] | < 10 nM | + (+>10) | + (+: 20-120 μl min^−1 mg^−1) | + (+: 20-120 μl min^−1 mg^−1)
CC(=O)N[C@H]1CC[C@H](CCN2CCN(c3cc(CO)nc(C(C)(C)C)n3)CC2)CC1 [Compound 22, trans-N-[4-[2-[4-[2-tert-butyl-6-(hydroxymethyl)pyrimidin-4-yl]piperazin-1-yl]ethyl]cyclohexyl]acetamide] | < 50 nM | +++ (+++>50) | + (+: 20-120 μl min^−1 mg^−1) | + (+: 20-120 μl min^−1 mg^−1)
COCCc1cc(N2CCN(CCC3CC(NC=O)C3)CC2)nc(C(C)(C)C)n1.O=C(O)C(F)(F)F (stereo not shown) [Compound 12, N-[3-(2-{4-[2-tert-Butyl-6-(2-methoxy-ethyl)-pyrimidin-4-yl]-piperazin-1-yl}-ethyl)-cyclobutyl]-formamide trifluoroacetate] | < 10 nM | ++ (++>20) | + (+: 20-120 μl min^−1 mg^−1) | + (+: 20-120 μl min^−1 mg^−1)
COCCc1cc(N2CCN(CC[C@H]3C[C@H](NC(C)=O)C3)CC2)nc(C(C)(C)C)n1.O=C(O)C(F)(F)F [Compound 4b, trans-N-[3-(2-{4-[2-tert-Butyl-6-(2-methoxy-ethyl)-pyrimidin-4-yl]-piperazin-1-yl}-ethyl)-cyclobutyl]-acetamide trifluoroacetate] | < 50 nM | +++ (+++>50) | + (+: 20-120 μl min^−1 mg^−1) | + (+: 20-120 μl min^−1 mg^−1)
COCCc1cc(N2CCN(CC[C@H]3CC[C@H](NC(C)=O)C3)CC2)nc(C(C)(C)C)n1 [Compound 15, trans-N-[(1S,3R)-3-[2-[4-[2-tert-butyl-6-(2-methoxyethyl)pyrimidin-4-yl]piperazin-1-yl]ethyl]cyclopentyl]acetamide] | < 10 nM | +++ (+++>50) | + (+: 20-120 μl min^−1 mg^−1) | + (+: 20-120 μl min^−1 mg^−1)
COCCc1cc(N2CCN(CCC3CC(NC=O)C3)C[C@@H]2C)nc(C(C)(C)C)n1 (stereo partly drawn) [Compound 28, N-[3-[2-[(3S)-4-[2-tert-butyl-6-(2-methoxyethyl)pyrimidin-4-yl]-3-methyl-piperazin-1-yl]ethyl]cyclobutyl]formamide] | < 50 nM | + (+>10) | + (+: 20-120 μl min^−1 mg^−1) | + (+: 20-120 μl min^−1 mg^−1)
CC(=O)N[C@H]1CC[C@H](CCN2CCN(c3cc(CCO)nc(C(C)(C)C)n3)[C@@H](C)C2)CC1 [Compound 25, trans-N-[4-[2-[(3S)-4-[2-tert-butyl-6-(2-hydroxyethyl)pyrimidin-4-yl]-3-methyl-piperazin-1-yl]ethyl]cyclohexyl]acetamide] | < 10 nM | +++ (+++>50) | + (+: 20-120 μl min^−1 mg^−1) | + (+: 20-120 μl min^−1 mg^−1)
COCCc1cc(N2CCN(CC[C@H]3C[C@@H](NC=O)C3)CC2)nc(C(C)(C)C)n1 [Compound 17, N-[cis-3-[2-[4-[2-tert-butyl-6-(2-methoxyethyl)pyrimidin-4-yl]piperazin-1-yl]ethyl]cyclobutyl]formamide] | < 50 nM | ++ (++>20) | + (+: 20-120 μl min^−1 mg^−1) | + (+: 20-120 μl min^−1 mg^−1)
COCCc1cc(N2CCN(CC[C@H]3CC[C@H](NC(C)=O)CC3)[C@H](C)C2)nc(C(C)(C)C)n1 [Compound 5, trans-N-[4-(2-{(2R)-4-[2-tert-Butyl-6-(2-methoxy-ethyl)-pyrimidin-4-yl]-2-methyl-piperazin-1-yl}-ethyl)-cyclohexyl]-acetamide] | < 50 nM | +++ (+++>50) | + (+: 20-120 μl min^−1 mg^−1) | + (+: 20-120 μl min^−1 mg^−1)
COCCc1cc(N2CCN(CC[C@H]3CC[C@H](NC=O)CC3)C[C@@H]2C)nc(C(C)(C)C)n1 [Compound 20, trans-N-[4-[2-[(3S)-4-[2-tert-butyl-6-(2-methoxyethyl)pyrimidin-4-yl]-3-methyl-piperazin-1-yl]ethyl]cyclohexyl]formamide] | < 10 nM | +++ (+++>50) | + (+: 20-120 μl min^−1 mg^−1) | + (+: 20-120 μl min^−1 mg^−1)
CC(C)(C)c1nc(CCO)cc(N2CCN(CC[C@H]3CC[C@H](NC=O)CC3)CC2)n1 [Compound 23, trans-N-[4-[2-[4-[2-tert-butyl-6-(2-hydroxyethyl)pyrimidin-4-yl]piperazin-1-yl]ethyl]cyclohexyl]formamide] | < 50 nM | +++ (+++>50) | + (+: 20-120 μl min^−1 mg^−1) | + (+: 20-120 μl min^−1 mg^−1)
